Earlier results on one molecule are cited in PubChem BioAssay AID1259409 (Chemical Carcinogenesis Research Information System (CCRIS), 2018).

This series concerns rodent chemically induced tumor inhibition, incidence and multiplicity. Put plainly: CCRIS tumor inhibitor studies. Particulars: Route [Inhibitor]: ORAL, Species: RAT.

Regarding `CCCCCCOc1cc(C)c(O)c(C)c1C`, the “tumour outcome (control, treated, inhibition, significance)” value is, setting by setting: (Carcinogen: 1,2-DIMETHYLBHYDRAZINE [540-73-8], Dose [Inhibitor]: 0.5% IN DIET FOR 32 WK BEGINNING 1 WK POST LAST CARCINOGEN DOSE (STUDY DURATION: 36 WK), Strain/Sex: F344/MALE, Target Tissue: Type of Lesion: COLON: ADENOMA OR CARCINOMA, Dose [Carcinogen]: 40 MG/KG BW 1X/WK FOR 4 WK (STUDY DURATION: 36 WK), Promoter: 2-AMINO-1-METHYL-6-PHENYLIMIDAZO[4,5-B]PYRIDINE [105650-23-5]) 20/21 (95%), 19/19 (100%), -5%, not significant; (Carcinogen: 2-AMINO-1-METHYL-6-PHENYL-1H-IMIDAZO[4,5-B]PYRID INE, 105650-23-5, Dose [Inhibitor]: 0, 0.5% IN THE DIET FOR 52 WK (STUDY DURATION: 52 WK), Strain/Sex: F344/FEMALE, Target Tissue: Type of Lesion: MAMMARY GLAND: ADENOCARCINOMA FIBROADENOMA, Dose [Carcinogen]: 0.02% IN THE DIET FOR 52 WK, Promoter: NONE USED) 2/20 (10%), 0/21 (0%), 100%, not significant; (Carcinogen: 2-AMINO-1-METHYL-6-PHENYL-1H-IMIDAZO[4,5-B]PYRID INE, 105650-23-5, Dose [Inhibitor]: 0, 0.5% IN THE DIET FOR 52 WK (STUDY DURATION: 52 WK), Strain/Sex: F344/FEMALE, Target Tissue: Type of Lesion: MAMMARY GLAND: ADENOCARCINOMA, Dose [Carcinogen]: 0.02% IN THE DIET FOR 52 WK, Promoter: NONE USED) 8/20 (40%), 1/21 (5%), 88%, p< 0.01; (Carcinogen: 2-AMINO-1-METHYL-6-PHENYLIMIDAZO[4,5-B]PYRIDINE, 105650-23-5, Dose [Inhibitor]: 0, 0.5% IN DIET FOR 52 WK CONCURRENTLY WITH CARCINOGEN TREATMENT (STUDY DURATION: 52 WK), Strain/Sex: F344/FEMALE, Target Tissue: Type of Lesion: LARGE INTESTINE: ADENOMA OR CARCINOMA, Dose [Carcinogen]: 0.02% IN DIET FOR 52 WK, Promoter: NONE USED) 2/18 (11%), 0/21 (0%), 100%, not calculated; (Carcinogen: 2-AMINO-1-METHYL-6-PHENYLIMIDAZO[4,5-B]PYRIDINE, 105650-23-5, Dose [Inhibitor]: 0, 0.5% IN DIET FOR 52 WK CONCURRENTLY WITH CARCINOGEN TREATMENT (STUDY DURATION: 52 WK), Strain/Sex: F344/FEMALE, Target Tissue: Type of Lesion: MAMMARY GLAND: ADENOCARCINOMA, Dose [Carcinogen]: 0.02% IN DIET FOR 52 WK, Promoter: NONE USED) 8/20 (40%), 1/21 (5%), 88%, p<0.01; (Carcinogen: DIETHYLNITROSAMINE, 55-18-5, N-METHYL-N-NITROSOUREA, 684-63-5, N-BUTYL-N-(4-HYDROXYBUTYL)NITROSAMINE, 3817-11-6, DIMETHY, Carcinogen: DIETHYLNITROSAMINE, 55-18-5, N-METHYL-N-NITROSOUREA, 684-63-5, N-BUTYL-N-(4-HYDROXYBUTYL)NITROSAMINE, 3817-11-6, DIMETHY, Dose [Inhibitor]: 0, 1% IN THE DIET FOR 30 D BEGINNING 1 D PRIOR TO CARCINOGEN TREATMENT (STUDY DURATION: 28 WK), Strain/Sex: F344/MALE, Target Tissue: Type of Lesion: SMALL INTESTINE: CARCINOMA, Dose [Carcinogen]: 100 MG/KG BW DEN ONCE FOLLOWED BY 20 MG/KG BW MNU 4 TIMES AND 0.05% BBN IN DRINKING WATER DURING FIRST 2 WK THEN 40 MG/K, Promoter: NONE USED) 7%, 14%, -100%, not significant. The “tumour outcome (control, treated, inhibition, significance)” value is given as 7%, 7%, 0%, not significant (Carcinogen: DIETHYLNITROSAMINE, 55-18-5, N-METHYL-N-NITROSOUREA, 684-93-5, N-BUTYL-N-(4-HYDROXYBUTYL)NITROSAMINE, 3817-11-6, DIMETHY, Carcinogen: DIETHYLNITROSAMINE, 55-18-5, N-METHYL-N-NITROSOUREA, 684-93-5, N-BUTYL-N-(4-HYDROXYBUTYL)NITROSAMINE, 3817-11-6, DIMETHY, Dose [Inhibitor]: 0, 1% IN THE DIET FOR 24 MO BEGINNING 1 DAY POST CARCINOGEN TREATMENT (STUDY DURATION: 28 WK), Strain/Sex: F344/MALE, Target Tissue: Type of Lesion: LARGE INTESTINE: CARCINOMA, Dose [Carcinogen]: 100 MG/KG BW DEN ONCE FOLLOWED BY 20 MG/KG BW MNU 4 TIMES AND 0.05% BBN IN DRINKING WATER DURING FIRST 2 WK THEN 40 MG/K, Promoter: NONE USED); 7%, 0%, 100%, not significant (Carcinogen: DIETHYLNITROSAMINE, 55-18-5, N-METHYL-N-NITROSOUREA, 684-93-5, N-BUTYL-N-(4-HYDROXYBUTYL)NITROSAMINE, 3817-11-6, DIMETHY, Carcinogen: DIETHYLNITROSAMINE, 55-18-5, N-METHYL-N-NITROSOUREA, 684-93-5, N-BUTYL-N-(4-HYDROXYBUTYL)NITROSAMINE, 3817-11-6, DIMETHY, Dose [Inhibitor]: 0, 1% IN THE DIET FOR 24 WK BEGINNING 1 D POST CARCINOGEN TREATMENT (STUDY DURATION: 28 WK), Strain/Sex: F344/MALE, Target Tissue: Type of Lesion: URINARY BLADDER: PAPILLOMA, Dose [Carcinogen]: 100 MG/KG BW DEN ONCE FOLLOWED BY 20 MG/KG BW MNU 4 TIMES AND 0.05% BBN IN DRINKING WATER DURING FIRST 2 WK THEN 40 MG/K, Promoter: NONE USED); 27%, 0%, 100%, p<0.05 (Carcinogen: DIETHYLNITROSAMINE, 55-18-5, N-METHYL-N-NITROSOUREA, 684-93-5, N-BUTYL-N-(4-HYDROXYBUTYL)NITROSAMINE, 3817-11-6, DIMETHY, Carcinogen: DIETHYLNITROSAMINE, 55-18-5, N-METHYL-N-NITROSOUREA, 684-93-5, N-BUTYL-N-(4-HYDROXYBUTYL)NITROSAMINE, 3817-11-6, DIMETHY, Dose [Inhibitor]: 0, 1% IN THE DIET FOR 24 WK BEGINNING 1 DAY POST CARCINOGEN TREATMENT (STUDY DURATION: 28 WK), Strain/Sex: F344/MALE, Target Tissue: Type of Lesion: LARGE INTESTINE: ADENOMA, Dose [Carcinogen]: 100 MG/KG BW DEN ONCE FOLLOWED BY 20 MG/KG BW MNU 4 TIMES AND 0.05% BBN IN DRINKING WATER DURING FIRST 2 WK THEN 40 MG/K, Promoter: NONE USED).
